# The source made the active and inactive calls.
# What was measured:
# Protein Tat = target: T1, Protein Tat (Human immunodeficiency virus type 1 group M subtype B (isolate HXB2)(HIV-1), UniProt P04608); format: functional;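 also: tat binding to TAR RNA read out by fluorescence polarization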
# T1 sequence (P04608 whole entry): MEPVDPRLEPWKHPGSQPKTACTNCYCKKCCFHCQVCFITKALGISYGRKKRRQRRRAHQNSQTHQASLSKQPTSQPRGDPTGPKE
# [1] = viability loss in THP-1 monocytes – THP-1 cells, cytotoxicity control for Vif-APOBEC3G degradation inhibitor project, dose response (AID 1117359); format: functional; conditions: THP-1
# [2] = Luminescence Cell-Based Dose Response HTS to Identify Activators of Luciferase Translation or Activity in H4 […] Cells. [Related pubchem assays: 1829 (Project Summary), 1814 (Primary HTS)]; format: functional
# [3] = target: Aryl hydrocarbon receptor (Homo sapiens, UniProt P35869); assay: Luminescence-based cell-based high throughput dose response assay for activators of the Aryl Hydrocarbon Receptor (AHR). [Related pubchem assays: 2796 (Primary screen (AHR activators in singlicate)), 2845 (Confirmation screen (AHR activators in triplicate)), 434939 (Counterscreen (PXR activators in triplicate)), 2804 (Summary (AHR activators))]; format: ADME
# Aryl hydrocarbon receptor, sequence (P35869 whole entry): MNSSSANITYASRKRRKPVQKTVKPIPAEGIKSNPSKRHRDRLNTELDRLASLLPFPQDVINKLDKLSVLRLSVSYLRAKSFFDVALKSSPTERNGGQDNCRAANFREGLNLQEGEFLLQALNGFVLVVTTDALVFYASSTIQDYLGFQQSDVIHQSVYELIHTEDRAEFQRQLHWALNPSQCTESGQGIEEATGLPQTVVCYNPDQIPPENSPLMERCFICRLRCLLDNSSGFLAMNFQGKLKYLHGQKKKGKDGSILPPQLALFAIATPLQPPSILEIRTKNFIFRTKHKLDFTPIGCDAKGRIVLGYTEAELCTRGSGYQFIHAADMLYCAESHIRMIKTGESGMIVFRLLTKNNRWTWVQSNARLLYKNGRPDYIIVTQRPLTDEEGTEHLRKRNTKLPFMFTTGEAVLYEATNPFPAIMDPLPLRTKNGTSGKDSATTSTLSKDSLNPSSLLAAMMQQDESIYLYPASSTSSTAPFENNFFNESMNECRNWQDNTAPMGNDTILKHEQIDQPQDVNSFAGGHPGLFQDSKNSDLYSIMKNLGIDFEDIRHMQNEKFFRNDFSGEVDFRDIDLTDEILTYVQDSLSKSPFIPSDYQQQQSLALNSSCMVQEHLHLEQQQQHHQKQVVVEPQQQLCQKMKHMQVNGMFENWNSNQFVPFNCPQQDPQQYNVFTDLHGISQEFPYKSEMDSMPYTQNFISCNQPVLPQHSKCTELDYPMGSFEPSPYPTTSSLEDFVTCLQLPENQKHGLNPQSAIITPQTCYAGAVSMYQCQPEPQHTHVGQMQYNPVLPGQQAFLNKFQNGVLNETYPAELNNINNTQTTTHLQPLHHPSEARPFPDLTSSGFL
# H4 = assay: Luminescence Cell-Based Dose Response HTS to Identify Activators of 5'UTR Stem-Loop Driven Prion Protein mRNA Translation in H4 Neuroglioblastoma Cells. [Related pubchem assays: 1829 (Project Summary), 1814 (Primary HTS)]; format: functional; conditions: Homo sapiens
# Bcl-2-related protein A1 [4] = target: T2, Bcl-2-related protein A1 (Mus musculus, UniProt Q07440); assay: small-molecule antagonists of Bfl-1/BH3 interaction – biochemical, TR-FRET, mouse Bfl-1, confirmation (AID 621);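 also: TR-FRET binding of GST-Bfl-1 to FITC-labelled Bid peptide via terbium antibody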
# T2 sequence (Q07440 whole entry): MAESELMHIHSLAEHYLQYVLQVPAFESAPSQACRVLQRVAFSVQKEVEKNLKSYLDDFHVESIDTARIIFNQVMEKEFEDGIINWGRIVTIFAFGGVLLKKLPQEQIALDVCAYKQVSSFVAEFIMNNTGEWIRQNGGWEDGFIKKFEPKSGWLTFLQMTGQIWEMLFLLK
# Bcl-2-related protein A1 [5] = target: T2, Bcl-2-related protein A1; assay: Bfl-1 binding inhibitors, SAR follow-up, biochemical, fluorescence polarization (AID 1070)
# [6] = target: Epstein-Barr nuclear antigen 1 (Epstein-Barr virus (strain B95-8) (HHV-4) (Human herpesvirus 4), UniProt P03211); assay: inhibition of EBV nuclear antigen 1 DNA binding – biochemical, fluorescence polarization, 1536-well, dose response (AID 2381); design: species or system human gammaherpesvirus 4;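 also: fluorescence polarization of a Cy5 DNA probe bound by EBNA-1 protein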
# Epstein-Barr nuclear antigen 1, sequence (P03211 whole entry): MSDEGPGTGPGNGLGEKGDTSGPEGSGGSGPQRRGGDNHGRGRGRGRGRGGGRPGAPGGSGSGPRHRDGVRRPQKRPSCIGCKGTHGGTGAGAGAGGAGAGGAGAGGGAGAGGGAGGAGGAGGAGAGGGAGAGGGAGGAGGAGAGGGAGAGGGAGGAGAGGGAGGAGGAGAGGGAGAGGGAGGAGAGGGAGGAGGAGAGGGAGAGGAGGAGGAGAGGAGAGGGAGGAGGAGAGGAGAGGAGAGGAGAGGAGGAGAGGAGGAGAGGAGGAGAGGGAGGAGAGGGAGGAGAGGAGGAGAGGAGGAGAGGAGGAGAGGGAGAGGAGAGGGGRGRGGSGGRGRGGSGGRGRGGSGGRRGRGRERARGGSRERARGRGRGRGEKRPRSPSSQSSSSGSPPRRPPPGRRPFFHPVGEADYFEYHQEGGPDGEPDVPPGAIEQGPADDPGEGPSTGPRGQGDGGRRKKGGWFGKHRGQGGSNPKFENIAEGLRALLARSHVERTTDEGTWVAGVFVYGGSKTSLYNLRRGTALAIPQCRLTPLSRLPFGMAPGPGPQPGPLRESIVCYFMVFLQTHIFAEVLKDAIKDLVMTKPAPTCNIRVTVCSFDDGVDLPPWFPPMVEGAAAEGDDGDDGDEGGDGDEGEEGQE
# [7] = target: Lytic switch protein BZLF1 (Epstein-Barr virus (strain B95-8) (HHV-4) (Human herpesvirus 4), UniProt P03206); assay: inhibition of BZLF1 ZTA DNA binding – biochemical, fluorescence polarization, Epstein-Barr virus, 1536-well, counter-screen for EBNA-1 inhibitor project, dose response (AID 2377); design: species or system human gammaherpesvirus 4;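 also: fluorescence polarization of Cy5-labelled ZRE DNA probe bound by purified Zta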
# Lytic switch protein BZLF1, sequence (P03206 whole entry): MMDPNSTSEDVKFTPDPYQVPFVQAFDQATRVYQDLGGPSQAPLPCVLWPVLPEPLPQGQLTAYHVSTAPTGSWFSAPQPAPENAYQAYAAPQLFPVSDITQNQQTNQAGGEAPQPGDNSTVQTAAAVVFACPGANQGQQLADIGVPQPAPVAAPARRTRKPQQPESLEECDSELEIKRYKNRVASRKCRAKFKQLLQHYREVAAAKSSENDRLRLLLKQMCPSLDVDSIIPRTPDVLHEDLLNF
# [8] = target: Sphingosine 1-phosphate receptor 2 (Homo sapiens, UniProt O95136); assay: Dose Response Cell Based Assay for Antagonists of the S1P2 Receptor. [Related pubchem assays: 856, 736 ]; format: functional
# Sphingosine 1-phosphate receptor 2, sequence (O95136 whole entry): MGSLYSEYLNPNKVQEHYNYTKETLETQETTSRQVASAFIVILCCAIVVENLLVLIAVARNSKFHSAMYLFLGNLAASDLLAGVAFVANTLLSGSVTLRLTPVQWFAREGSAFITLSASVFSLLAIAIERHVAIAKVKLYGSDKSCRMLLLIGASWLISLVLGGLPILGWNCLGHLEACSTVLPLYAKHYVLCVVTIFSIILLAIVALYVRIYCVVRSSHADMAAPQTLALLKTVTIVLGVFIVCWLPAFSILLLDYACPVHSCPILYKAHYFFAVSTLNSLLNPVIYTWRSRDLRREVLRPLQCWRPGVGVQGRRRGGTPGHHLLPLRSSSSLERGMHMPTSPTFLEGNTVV
# [9] = M. tuberculosis H37Rv growth inhibitors, H37Rv strain (AID 1626); format: functional
# cells = format: functional
# [10] = microbe, parasite or virus in culture; format: functional; conditions: Mycobacterium tuberculosis
compound,measurement,setting,value
Cc1nc2cc(NN=C3C(=O)CCCC3=O)ccc2s1,IC50,Protein Tat,> 50 µM (active)
same,CC50,[1],> 40 µM (active)
O=C(NC1CCCC1)c1cc2c(ccc3ccccc32)o1,EC50,[2],1.94 µM (active)
same,EC50,[3],2.8 µM (active)
same,EC50,H4,24.1 µM (active)
Clc1ccc(-n2nnc(-c3cc4ccccc4nc3Cl)n2)cc1Cl,IC50,Bcl-2-related protein A1 [4],> 100 µM (not active)
same,IC50,Bcl-2-related protein A1 [5],> 100 µM (not active)
COc1ccc(Cn2cccc(NC(=O)Nc3cccc(C#N)c3)c2=O)cc1,IC50,[6],9.07 µM (active)
same,IC50,[7],> 111 µM (not active)
COc1ccc(-n2c(SCC(=O)NCC3CCCO3)nc3c4ccccc4nc-3c2O)cc1 (stereo unspecified),IC50,[6],9.89 µM (active)
same,IC50,[7],> 111 µM (not active)
NC(=O)c1sc2cc(C(F)(F)F)cnc2c1-c1cccs1,IC50,[8],> 30 µM (not active)
O=C(Nc1ccccc1Cl)Oc1ccc2ccccc2c1,IC50,[9],> 100 µM (active)
O=[N+]([O-])c1cnc(Nc2ccc(Cl)cn2)c([N+](=O)[O-])c1,IC50,cells,4.17 µM (active)
same,CC50,[10],> 40 µM (active)
same,EC50,[3],1.29 µM (active)
